Measured values from patent US6420371B1, “Quinazolinone-containing pharmaceutical compositions for prevention of neovascularization and for treating malignancies” (Madasit Medical Research Services & Development Co., Ltd., priority 1997, dated 2002).
≈ marks a conversion by molar mass, not a printed value.

System: bovine corneal endothelial cells
Experiment: cells
Format: cell-based
Protocol: Cultures of bovine corneal endothelial cells were established from steer eyes and maintained as previously described [D. Gospodarowicz, et al., Exp. Eye Res., No. 25, pp. 75-89 (1997)]. Cells were cultured at 37° C. in 10% CO2 humidified incubators and the experiments were performed with early (3-8) cell passsages.
For preparation of the sulfate-labelled ECM (extra-cellular matrix), corneal endothelial cells were seeded into 4-well plates at a confluent density forming, within 4-6 h, a contact inhibited cell monolayer composed of closely apposed, and growth arrested cells. Under these conditions, the cells remained viable and retained their normal monolayer configuration and morphological appearance up to a concentration of 2 μg/ml halofuginone. Na2[^35S]O4 (540-590 mCi/mmol) was added (40 μCi/ml) one and five days after seeding and the cultures were incubated without medium change. At various intervals after seeding, the subendothelial ECM was exposed by dissolving (5 min., room temperature) the cell layer with PBS containing 0.5% Triton X-100 and 20 mM NH4OH, followed by four washes in PBS [I Viodavsky, et al., Cancer Res., Vol. 43, pp. 2704-2711 (1983), I. Vlodavsky, et al., Proc. Natl. Acad. Sci. USA, Vol. 84 pp. 2292-2296 (1987)]. To determine the total amount of sulfate labeled material, the BCM was digested with trypsin (25 μg/ml, 24 h, 37° C.) and the solubilized material counted in a β-counter.

For O=C(CC1NCCCC1O)Cn1cnc2cc(Br)c(Cl)cc2c1=O (stereo not drawn) [Halofuginone], the “inhibition of sulfate incorporation into ECM” value (1 μg/ml Halofuginone) was “almost complete inhibition”, the IC50 (Bos taurus, Endothelial cell, read-out: concentration giving 50% inhibition of sulfate incorporation into ECM) was 0.2 µg/mL (≈ 0.482 µM) and the “concentration up to which cells remained viable with normal monolayer configuration and morphology” value (bovine) was at most 2 μg/ml.
